Here are results for two molecules from patent US20250296914A1, “ANTIVIRAL COMPOUNDS AND COMPOSITIONS THEREFROM” (CONSEJO SUPERIOR DE INVESTIGACIONES CIENTÍFICAS, priority 2022, published 2025).

In data set [1] the test system is SARS-CoV-2 stock strain NL/2020. The data set is described as follows: Protective effect against virus-induced cytopathic effect (crystal violet staining of Vero-E6 monolayer). It counts as cell-based. The settings on record: Severe acute respiratory syndrome coronavirus 2, Vero C1008, 72 h, Vero-E6, SARS-CoV-2 MOI 0.001, 72 h; for minimal effective concentration: 50 to 0.78 μM tested, read-out: PC MIN (lowest protective concentration); for EC50: lowest fully protecting concentration averaged with next lower dilution, read-out: ESTIMATED EC50.

Another data set concerns hCoV-229E-GFP virus. It counts as cell-based, Human coronavirus 229E.
Data set [2] is described as follows: in vitro. The settings on record: human.
Data set [3] deals with SARS-CoV-2 stock strain NL/2020. The data set is described as follows: Intracellular viral antigen (N protein) accumulation by immunofluorescence, Calu3. The conditions noted are these: Severe acute respiratory syndrome coronavirus 2; Calu-3, MOI 0.005, viral antigen staining, 48 h. It counts as cell-based.
For data set [4] the test system is unchanged. The data set is described as follows: Intracellular viral antigen (N protein) accumulation by immunofluorescence, A549-ACE2. It counts as cell-based. The settings on record: Severe acute respiratory syndrome coronavirus 2; A549-ACE2, MOI 0.005, viral antigen staining, 48 h.
The nature of data set [5]: in vitro. The conditions noted are these: African green monkey.
A further data set relates to VSV-GFP virus. It counts as cell-based, Vesicular Stomatitis Virus.
The next data set concerns WNV-GFP virus. It counts as cell-based, West Nile Virus. The conditions noted are these: Huh-7, MOI 0.01, 48 h, FIG. 2.
Data set [6] is described as follows: in vitro. The settings on record: human. The source holds these as a separate data set.
Data set [7] deals with SARS-CoV-2 stock strain NL/2020. The data set is described as follows: Intracellular viral antigen (N protein) accumulation by immunofluorescence, Vero-E6. It counts as cell-based. The settings on record: Severe acute respiratory syndrome coronavirus 2, Vero C1008; Vero-E6, MOI 0.005, viral antigen staining, 24 h.

Regarding `COC(=O)c1cc(-c2ccc(N3CCOCC3)cc2)ccc1NC(C#N)[C@H](Cc1c[nH]c2ccccc12)NC(=O)OC(C)(C)C` (stereo partly drawn) [(Ia), methyl 4-(((2S)-2-((tert-butoxycarbonyl)amino)-1-cyano-3-(1H-indol-3-yl)propyl)-amino)-4′-morpholino-[1,1′-biphenyl]-3-carboxylate], the minimal effective concentration in data set [1] came out at 0.78 µM. Besides, the EC50 – broadly, the concentration giving half of the maximal effect – in data set [1] is 580 nM; in [3], 200 nM; in [4], 1000 nM; in data set [7], 300 nM. Further, the “Prevention of infection with 229E-GFP (GFP expression, in words)” value in the data set on hCoV-229E-GFP virus is given as “suitable for preventing efficiently the infection”. Also, the CC50 at 48 h in the data set “in vitro [2]”, in “in vitro [5]” and in the data set “in vitro [6]” was more than 50000 nM each time. Further, the concentration for an effect of 90% (EC90) (as a rule, the concentration needed for an effect of 90%) in [3] was found to be 2000 nM; in data set [4], 1800 nM; in data set [7] it was 500 nM. In addition, in the data set on VSV-GFP virus, the “Prevention of infection by Vesicular Stomatitis Virus (GFP expression, in words)” value is “not being suitable for preventing the infection”. Further, in the data set with WNV-GFP virus, the “Prevention of infection by West Nile Virus (GFP expression, in words)” value was “not being suitable for preventing the infection”.
With `COC(=O)c1cc(-c2ccc(N3CCCC3)nc2)ccc1NC(C#N)[C@H](Cc1c[nH]c2ccccc12)NC(=O)OC(C)(C)C` (stereo partly drawn) [(Iq), methyl 2-(((2S)-2-((tert-butoxycarbonyl)amino)-1-cyano-3-(1H-indol-3-yl)propyl)amino)-5-(6-(pyrrolidin-1-yl)pyridin-3-yl)benzoate], in [1], the minimal effective concentration worked out at 1.56 µM. The EC50 in [1] is 1170 nM; in [3], 300 nM; in data set [4] it was 1500 nM; in data set [7] it was 200 nM. For the same molecule, in the data set with hCoV-229E-GFP virus, the “Prevention of infection with 229E-GFP (GFP expression, in words)” value is recorded as “suitable for preventing efficiently the infection”. In addition, the CC50 at 48 h in “in vitro [2]”, in “in vitro [5]” and in “in vitro [6]” was more than 50000 nM in each case. Also, the values for the EC90 in data set [3], in data set [4] and in [7] were 2500 nM, 5000 nM and 900 nM, respectively. In addition, the “Prevention of infection by Vesicular Stomatitis Virus (GFP expression, in words)” value with VSV-GFP virus was “not being suitable for preventing the infection”. Besides, in the data set with WNV-GFP virus, the “Prevention of infection by West Nile Virus (GFP expression, in words)” value is “not being suitable for preventing the infection”.
